The subject of assay [1] is H460. Nature of the assay: Cell proliferation assay (CellTiter-Glo). The class given is cell-based. The conditions noted are these: Homo sapiens, NCI-H460; NSCLC; 72 hours, 0.5% fetal bovine serum; read-out: antiproliferative activity IC50, H460. A digest of the protocol: (§1)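 Inhibition of growth was assessed as loss of ATP signal; cultures at 5,000–10,000 cells per well received serial compound doses for 72 h with 0.5% FBS, then were lysed for 30 min before luminescence reading.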
(In general: ATP-based viability assays read luminescence as a measure of living cells.)

The test system of assay [2] is HCT116. Nature of the assay: Cell proliferation assay (CellTiter-Glo). The format is cell-based. To be noted: Homo sapiens, HCT-116; Colon; 72 hours, 0.5% fetal bovine serum; read-out: antiproliferative activity IC50, HCT116. The method in brief: as §1
In assay [3] the test system is MiaPaca1. Nature of the assay: Cell proliferation assay (CellTiter-Glo). The format is cell-based. To be noted: Pancreas; 72 hours, 0.5% fetal bovine serum; read-out: antiproliferative activity IC50, MiaPaca1. A digest of the protocol: as §1
In assay [4] the test system is A549. Nature of the assay: Cell proliferation assay (CellTiter-Glo). The class given is cell-based. To be noted: Homo sapiens, NSCLC, 72 hours, 0.5% fetal bovine serum, read-out: antiproliferative activity IC50, A549. A digest of the protocol:
as §1

The subject of assay [5] is H292. Nature of the assay: Cell proliferation assay (CellTiter-Glo). The class given is cell-based. The conditions noted are these: Homo sapiens, NCI-H292; NSCLC; 72 hours, 0.5% fetal bovine serum; read-out: antiproliferative activity IC50, H292. A digest of the protocol: as §1
Assay [6] concerns CFPAC-1. Nature of the assay: Cell proliferation assay (CellTiter-Glo). The format is cell-based. To be noted: Homo sapiens, Pancreas, 72 hours, 0.5% fetal bovine serum, read-out: antiproliferative activity IC50, CFPAC-1. A digest of the protocol: as §1
Assay [7] deals with CaPan1. Nature of the assay: Cell proliferation assay (CellTiter-Glo). The class given is cell-based. To be noted: Homo sapiens, CAPAN-1; Pancreas; 72 hours, 0.5% fetal bovine serum; read-out: antiproliferative activity IC50, CaPan1. The method in brief: as §1
Assay [8] has as its system WiDr. Nature of the assay: Cell proliferation assay (CellTiter-Glo). The class given is cell-based. To be noted: Homo sapiens, Colon, 72 hours, 0.5% fetal bovine serum, read-out: antiproliferative activity IC50, WiDr. A digest of the protocol: as §1
The subject of assay [9] is OVCAR-5. Nature of the assay: Cell proliferation assay (CellTiter-Glo). The format is cell-based. The conditions noted are these: Homo sapiens, Ovarian, 72 hours, 0.5% fetal bovine serum, read-out: antiproliferative activity IC50, OVCAR-5. A digest of the protocol:
as §1

The subject of assay [10] is PC-3. Nature of the assay: Cell proliferation assay (CellTiter-Glo). The format is cell-based. To be noted: Homo sapiens, Prostate, 72 hours, 0.5% fetal bovine serum, read-out: antiproliferative activity IC50, PC-3. A digest of the protocol:
as §1

In assay [11] the test system is SW1990. Nature of the assay: Cell proliferation assay (CellTiter-Glo). The class given is cell-based. The conditions noted are these: Homo sapiens, Pancreas, 72 hours, 0.5% fetal bovine serum, read-out: antiproliferative activity IC50, SW1990. A digest of the protocol: as §1
Assay [12] relates to OPM-2. Nature of the assay: Cell proliferation assay (CellTiter-Glo). The class given is cell-based. To be noted: Homo sapiens, Multiple Myeloma, 72 hours, 0.5% fetal bovine serum, read-out: antiproliferative activity IC50, OPM-2. The method in brief: as §1
Assay [13] deals with SW620. Nature of the assay: Cell proliferation assay (CellTiter-Glo). The class given is cell-based. The conditions noted are these: Homo sapiens, SW-620; Colon; 72 hours, 0.5% fetal bovine serum; read-out: antiproliferative activity IC50, SW620. A digest of the protocol: as §1
The test system of assay [14] is LN-Cap. Nature of the assay: Cell proliferation assay (CellTiter-Glo). The conditions noted are these: Homo sapiens, LNCaP; Prostate; 72 hours, 0.5% fetal bovine serum; read-out: antiproliferative activity IC50, LN-Cap. The format is cell-based. A digest of the protocol: as §1
Assay [15] concerns H2122. Nature of the assay: Cell proliferation assay (CellTiter-Glo). The class given is cell-based. The conditions noted are these: Homo sapiens, NCI-H2122; NSCLC; 72 hours, 0.5% fetal bovine serum; read-out: antiproliferative activity IC50, H2122. The method in brief: as §1
The test system of assay [16] is SWI-116. Nature of the assay: Cell proliferation assay (CellTiter-Glo). The format is cell-based. To be noted: Colon; 72 hours, 0.5% fetal bovine serum; read-out: antiproliferative activity IC50, SWI-116. The method in brief: as §1
Assay [17] deals with T-84. Nature of the assay: Cell proliferation assay (CellTiter-Glo). The format is cell-based. The conditions noted are these: Homo sapiens, T84; Colon; 72 hours, 0.5% fetal bovine serum; read-out: antiproliferative activity IC50, T-84. A digest of the protocol: as §1
Assay [18] concerns PANC-1. Nature of the assay: Cell proliferation assay (CellTiter-Glo). The class given is cell-based. The conditions noted are these: Homo sapiens, Pancreas, 72 hours, 0.5% fetal bovine serum, read-out: antiproliferative activity IC50, PANC-1. A digest of the protocol:
as §1

Assay [19] concerns MDA-MB-231. Nature of the assay: Cell proliferation assay (CellTiter-Glo). The format is cell-based. To be noted: Homo sapiens, Breast, 72 hours, 0.5% fetal bovine serum, read-out: antiproliferative activity IC50, MDA-MB-231. The method in brief:
as §1

Assay [20] relates to H358. Nature of the assay: Cell proliferation assay (CellTiter-Glo). The class given is cell-based. The conditions noted are these: Homo sapiens, NCI-H358; NSCLC; 72 hours, 0.5% fetal bovine serum; read-out: antiproliferative activity IC50, H358. The method in brief: as §1
The subject of assay [21] is SW403. Nature of the assay: Cell proliferation assay (CellTiter-Glo). To be noted: Homo sapiens, SW-403; Colon; 72 hours, 0.5% fetal bovine serum; read-out: antiproliferative activity IC50, SW403. The format is cell-based. A digest of the protocol:
as §1

The subject of assay [22] is Calu6. Nature of the assay: Cell proliferation assay (CellTiter-Glo). The class given is cell-based. To be noted: Homo sapiens, Calu-6; NSCLC; 72 hours, 0.5% fetal bovine serum; read-out: antiproliferative activity IC50, Calu6. A digest of the protocol:
as §1

Assay [23] relates to CaPan2. Nature of the assay: Cell proliferation assay (CellTiter-Glo). The class given is cell-based. The conditions noted are these: Homo sapiens, Capan-2; Pancreas; 72 hours, 0.5% fetal bovine serum; read-out: antiproliferative activity IC50, CaPan2. A digest of the protocol:
as §1

The test system of assay [24] is glioblastoma xenografts. To be noted: oral dosage; cited from earlier work.

Where only a bound is given, the exact number is not on record here.

As for `CS(=O)(=O)N1CCN(Cc2cc3nc(-c4cccc5[nH]ncc45)nc(N4CCOCC4)c3s2)CC1` [GDC-0941, reference compound], the IC50 – broadly, the concentration at which inhibition is half-maximal – in [1] was in the range of 100 to 1000 nM; in assay [2] it was 100 to 1000 nM; in assay [3], 1000 to 10000 nM; in [4], 100 to 1000 nM; in assay [5] it was 1000 to 10000 nM; in assay [6] it was 1000 to 10000 nM. Further, the IC50 in [7] fell in the range of 1000 to 10000 nM; in assay [8], 100 to 1000 nM; in [9] it was 100 to 1000 nM; in assay [10], 1000 to 10000 nM; in assay [11] it was 1000 to 10000 nM; in assay [12], 100 to 1000 nM. In addition, the IC50 in [13] was in the range of 100 to 1000 nM; in assay [14], 100 to 1000 nM; in assay [15], 1000 to 10000 nM; in assay [16], 100 to 1000 nM; in [17], 1000 to 10000 nM; in assay [18] it was 1000 to 10000 nM. In addition, the IC50 in [19] was greater than 10000 nM; in assay [20], 1000 to 10000 nM; in assay [21], 1000 to 10000 nM; in assay [22], 1000 to 10000 nM; in [23], 1000 to 10000 nM. For the same molecule, the “effect in glioblastoma xenografts in vivo” value in assay [24] is listed as “tumor suppression”.

The values above are taken from patent publication US20130102595A1 (Curis, Inc., priority 2011, published 2013).
